# Legend:
# dermal fibroblasts = test: Hyaluronan pericellular coat formation by dermal fibroblasts (particle exclusion assay); format: cell-based, human
# From the text: A normal adult skin biopsy (6 mm) was obtained (n=1), with informed consent, from an individual attending the Oral Surgery Clinic, School of Dentistry, Wales College of Medicine, Cardiff. Following the application of a local anaesthetic, the dermal biopsy was collected and adult dermal fibroblast cultures established by single cell suspension technique, following enzymic degradation of the specimen. This technique has previously been reliably used to establish viable primary cultures of both oral and dermal fibroblasts in vitro (Cook et al, 2000; Stephens et al, 2001; 2003). Dermal fibroblasts were cultured in Fibroblast-Serum Containing Medium, containing Dulbecco's Modified Eagle's Medium (DMEM), supplemented with L-glutamine (2 mM), antibiotics (100 U/ml) penicillin G sodium, […] streptomycin sulphate and 0.25 μg/ml amphotericin B) and 10% foetal calf serum (all purchased from Invitrogen Ltd., Paisley, U.K.). Dermal fibroblast cultures were maintained at 37° C., in a 5% CO2/95% air atmosphere, with the culture medium being changed every 2-3 days. Dermal fibroblasts were used between) passage 7-17, for all experiments.
# Following trypsinization, dermal fibroblasts were seeded in 53 mm bacteriological grade culture dishes (VWR International Ltd., Leicestershire, U.K.), in PEP005-free, Fibroblast-Serum Containing Medium (2 ml), at a density of 7×10^4 cell/dish. Dermal fibroblasts were maintained at 37° C., in a 5% CO2/95% air atmosphere, overnight, prior to washing in PBS (2×2 ml) and maintenance in serum-free, Fibroblast-Serum Containing Medium (2 ml), containing 0 μg/ml, 0.01 μg/ml, 0.1 μg/ml, 1 μg/ml, 10 μg/ml or 100 μg/ml PEP005, +/−TGF-β1 (10 ng/ml) (three culture dishes per PEP005 concentration). A control was also established, consisting of cells in serum-free, Fibroblast-Serum Containing Medium, containing 1% DMSO. The dermal fibroblasts were maintained at 37° C., in a 5% CO2/95% air atmosphere, for 24 h or 72 h. At 24 h and 72 h, the culture dishes were treated with formalized horse blood erythrocytes (TCS Biosciences Ltd., Buckinghamshire, U.K.). The formalized horse blood erythrocytes were washed in PBS, to remove sodium azide (3×20 ml) and centrifuged at 100 g/7 min, at 4° C. The erythrocyte cell pellet obtained was re-suspended in serum-free, Fibroblast-Serum Containing Medium, to a density of 1×10^8 cells/ml. Aliquots of the erythrocyte cell suspension (500 μl) were supplemented to each culture dish and the dishes agitated, prior to maintenance at 37° C., in a 5% CO2/95% air atmosphere, for 15 min. Zones of erythrocyte exclusion were visualized by light microscopy, using a Zeiss Axiovery 135 Inverted Microscope (Carl Zeiss Ltd., Hertfordshire, U.K.), with a Hamamatsun C5985 chilled CCD camera (Hamamatsu Photonics U.K. Ltd., Hertfordshire, U.K.) and using Openlab Software 3.0.8 (Improvision Ltd., Warwickshire, U.K.). Each experiment was performed on three separate occasions.
# [1] = Stability of PEP005/DMSO stock solution; format: physicochemical; conditions: 10 mg/ml in DMSO, stored at 4° C.
# Description: PEP005, obtained from Peplin in 20 mg batches, was stored at 4° C. When required, the PEP005 was solubilized in dimethyl sulphoxide (DMSO, >99.9%, Sigma Chemical Company, Dorset, U.K.), at a concentration of 10 mg/ml. […] Prior to use, the PEP005/DMSO stock solution was removed from 4° C. storage and warmed to room temperature. The required volumes of PEP005/DMSO were aliquoted into a poly-propylene vessel and the PEP005/DMSO diluted to the required concentration (typically 0.01 μg/ml, 0.1 μg/ml, 1 μg/ml, 10 μg/ml and 100 μg/ml) in Fibroblast-Serum Containing Medium (for dermal fibroblast cultures, Section 3.1), with fresh PEP005/culture medium solutions being prepared daily, at the various concentrations above, due to solution stability. Prior to discarding PEP005/culture medium solutions, at least two volumes of 0.1% sodium hydroxide (Sigma Chemical Company), in 95% ethanol/5% methanol (both from Thermo Fisher Scientific, Leicestershire, U.K.), was added to each solution, to deactivate.
smiles,measurement,setting,value
"C/C=C(/C)C(=O)O[C@H]1C(C)=C[C@]23C(=O)[C@@H](C=C(CO)[C@@H](O)[C@]12O)[C@H]1[C@@H](C[C@H]3C)C1(C)C [PEP005, ingenol-3-angelate]",changes in cellular morphology,"dermal fibroblasts; PEP005 0.01-10 μg/ml plus TGF-β1 (10 ng/ml), 72 h",consistent with the presence of myofibroblasts
same,hyaluronan pericellular coat formation,"dermal fibroblasts; PEP005 0.01-10 μg/ml plus TGF-β1 (10 ng/ml), 72 h, compared to PEP005-free controls",even further enhanced
same,morphological changes in fibroblasts,"dermal fibroblasts; PEP005 0.01-10 μg/ml, absence of TGF-β1, 72 h",consistent with the presence of myofibroblasts
same,hyaluronan pericellular coat size,"dermal fibroblasts; PEP005 0.01-10 μg/ml, absence of TGF-β1, 72 h, compared to PEP005-free controls",increase pericellular coat size
same,hyaluronan pericellular coat formation,"dermal fibroblasts; PEP005-treated cultures, absence of TGF-β1, 24 h",little pericellular coat formation
same,hyaluronan pericellular coat formation,"dermal fibroblasts; PEP005 plus TGF-β1 (10 ng/ml), 24 h, compared to untreated controls and to PEP005 without TGF-β1",major synergistic effect
same,stability of PEP005/DMSO stock solution,[1],stable for several months
